Earlier results on 4 molecules are cited in US6919335B2, “Heterocycles that are inhibitors of IMPDH enzyme” (Bristol-Myers Squibb Co., priority 2000, dated 2005).

Structures are written as SMILES. Like-named read-outs stand apart in the source and are kept apart here.

For one data set, the system named is IMPDH types I and II. Particulars: RT-PCR, low and high concentrations, alone or both.
Data set [1] has as its system antigen-specific T lymphocyte responses. To be noted: for approximate IC10: inhibition of antigen-induced proliferation; for synergistic effect on inhibition of antigen-induced proliferation: in combination with Rol 10^−7 M; for % inhibition of proliferation: Rol plus MPA.
Data set [2] has as its system proinflammatory cytokines (IL-2, IL-4, and IFN). To be noted: RT-PCR; Rol 10^−7 M, MPA 10^−8 M, or the combination.

With `COc1ccc(C2CNC(=O)C2)cc1OC1CCCC1` (stereo not shown) [rolipram, 4-[3-(cyclopentyloxy)-4-methoxy-phenyl]-2-pyrrolidinone], in the data set with IMPDH types I and II, the “gene expression for IMPDH types I and II” value is “remained unaffected”. In addition, the “approximate IC10” value in data set [1] is on record as ~10^−7 M. The “downregulation in the generation of proinflammatory cytokines” value in data set [2] is “no significant downregulation”.

Consider `C=CC[C@@H]1/C=C(\C)C[C@H](C)C[C@H](OC)[C@H]2O[C@@](O)(C(=O)C(=O)N3CCCC[C@H]3C(=O)O[C@H](/C(C)=C/[C@@H]3CC[C@@H](O)[C@H](OC)C3)[C@H](C)[C@@H](O)CC1=O)[C@H](C)C[C@@H]2OC` [tacrolimus], for which the “synergistic effect on inhibition of antigen-induced proliferation” value in data set [1] is recorded as “little or no synergistic effect”.

Take `CCCC(=O)Nc1ncnc2c1ncn2[C@@H]1O[C@@H]2COP(=O)(O)O[C@H]2[C@H]1OC(=O)CCC` [dibuteryl-cAMP]: the “approximate IC10” value in data set [1] is approximately 2e-06 M.

For the molecule `COc1c(C)c2c(c(O)c1C/C=C(\C)CCC(=O)O)C(=O)OC2` [MPA, mycophenolic acid], the “gene expression for IMPDH types I and II” value with IMPDH types I and II was “remained unaffected”. For the same molecule, the “% inhibition of proliferation” value in data set [1] (with deoxyguanosine (antagonist of MPA on IMPDH), p<0.05) is given as 35±12%; in data set [1] (without deoxyguanosine), 81±16%. Also, the “synergistic effect on inhibition of antigen-induced proliferation” value in data set [1] was “marked synergistic effect”. For the same molecule, in data set [2], the “downregulation in the generation of proinflammatory cytokines” value is “no significant downregulation”.
